Data: US20220047569A1, “METHOD AND COMPOUND FOR USE, IN TREATING AND/OR PREVENTING NETOSIS” (Jubilant EpiPad LLC, priority 2020, published 2022)

System: Histone H3 Citrullination in Neutrophils
Experiment: Citrullination ELISA (Citrullinated Histone H3) in calcium ionophore stimulated neutrophils
Assay type: cell-based
Details: Neutrophil; human neutrophils, 25 μM calcium ionophore, CitH3 ELISA
In short: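 Freshly isolated human donor neutrophils in RPMI with 2% BSA and 1 mM CaCl2 were pre-incubated 30 min with compound (10, 1, 0.1 μM), then stimulated 30 min with 25 μM calcium ionophore. After S7 nuclease digestion, lysates were assayed by citrullinated histone H3 ELISA (450 nm); IC50 from sigmoidal fits.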

IC50	SMILES
< 100 nM	Cc1csc(Cn2c(-c3nc4cc(C(=O)N5CCC[C@@H](N)C5)cc5c4n3CCO5)cc3ccccc32)n1 [Compound 145, (R)-(3-aminopiperidin-1-yl)(2-(1-((4-methylthiazol-2-yl)methyl)-1H-indol-2-yl)-3,4-dihydro-5-oxa-1,2a-diazaacenaphthylen-7-yl)methanone]
100 to 1000 nM	N[C@@H]1CCCN(C(=O)c2cc3c4c(c2)nc(-c2cc5cc(F)ccc5n2CC2CC2)n4CCN3)C1 [Compound 150, (R)-(3-aminopiperidin-1-yl)(2-(1-(cyclopropylmethyl)-5-fluoro-1H-indol-2-yl)-5,6-dihydro-4H-imidazo[1,5,4-de]quinoxalin-8-yl)methanone]
< 100 nM	N[C@@H]1CCCN(C(=O)c2cc3c4c(c2)nc(-c2cc5ccc(F)cc5n2CC2CC2)n4CCN3)C1 [Compound 151, (R)-(3-aminopiperidin-1-yl)(2-(1-(cyclopropylmethyl)-6-fluoro-1H-indol-2-yl)-5,6-dihydro-4H-imidazo[1,5,4-de]quinoxalin-8-yl)methanone]
< 100 nM	N[C@@H]1CCCN(C(=O)c2cc3c4c(c2)nc(-c2cc5cc(F)c(F)cc5n2CC2CC2)n4CCN3)C1 [Compound 163, (R)-(3-aminopiperidin-1-yl)(2-(1-(cyclopropylmethyl)-5,6-difluoro-1H-indol-2-yl)-5,6-dihydro-4H-imidazo[1,5,4-de]quinoxalin-8-yl)methanone]
100 to 1000 nM	N[C@@H]1CCCN(C(=O)c2cc3c4c(c2)nc(-c2cc5c(F)cccc5n2CC2CC2)n4CCN3)C1 [Compound 166, (R)-(3-aminopiperidin-1-yl)(2-(1-(cyclopropylmethyl)-4-fluoro-1H-indol-2-yl)-5,6-dihydro-4H-imidazo[1,5,4-de]quinoxalin-8-yl)methanone]
100 to 1000 nM	Cc1cccc2cc(-c3nc4cc(C(=O)N5CCC[C@@H](N)C5)cc5c4n3CCN5)n(CC3CC3)c12 [Compound 170, (R)-(3-aminopiperidin-1-yl)(2-(1-(cyclopropylmethyl)-7-methyl-1H-indol-2-yl)-5,6-dihydro-4H-imidazo[1,5,4-de]quinoxalin-8-yl)methanone]
< 100 nM	N[C@@H]1CCCN(C(=S)c2cc3c4c(c2)nc(-c2cc5ccccc5n2CC2CC2)n4CCN3)C1 [Compound 172, (R)-(3-aminopiperidin-1-yl)(2-(1-(cyclopropylmethyl)-1H-indol-2-yl)-5,6-dihydro-4H-imidazo[1,5,4-de]quinoxalin-8-yl)methanethione]

Further lines, the compound ahead of its results:

SMILES	IC50
N[C@@H]1CCCN(C(=O)c2cc3c4c(c2)nc(-c2cc5ccc(F)cc5n2Cc2ccc(F)cc2)n4CCO3)C1 [Compound 135, (R)-(3-aminopiperidin-1-yl)(2-(6-fluoro-1-(4-fluorobenzyl)-1H-indol-2-yl)-3,4-dihydro-5-oxa-1,2a-diazaacenaphthylen-7-yl)methanone]	< 100 nM
COc1ccc(Cn2c(-c3nc4cc(C(=O)N5CCC[C@@H](N)C5)cc5c4n3CCO5)cc3ccc(F)cc32)cc1 [Compound 136, (R)-(3-aminopiperidin-1-yl)(2-(6-fluoro-1-(4-methoxybenzyl)-1H-indol-2-yl)-3,4-dihydro-5-oxa-1,2a-diazaacenaphthylen-7-yl)methanone]	> 1000 nM
COc1ccc2cc(-c3nc4cc(C(=O)N5CCC[C@@H](N)C5)cc5c4n3CCO5)n(Cc3ccc(F)cc3)c2c1 [Compound 137, (R)-(3-aminopiperidin-1-yl)(2-(1-(4-fluorobenzyl)-6-methoxy-1H-indol-2-yl)-3,4-dihydro-5-oxa-1,2a-diazaacenaphthylen-7-yl)methanone]	> 1000 nM
CC(C)Cn1c(-c2nc3cc(C(=O)N4CCC[C@@H](N)C4)cc4c3n2CCO4)cc2cccc(Cl)c21 [Compound 141, (R)-(3-aminopiperidin-1-yl)(2-(7-chloro-1-isobutyl-1H-indol-2-yl)-3,4-dihydro-5-oxa-1,2a-diazaacenaphthylen-7-yl)methanone]	> 1000 nM
N[C@@H]1CCCN(C(=O)c2cc3c4c(c2)nc(-c2cc5cc(/C=C/c6ccccc6)ccc5n2CC2CC2)n4CCO3)C1 [Compound 144, (R,E)-(3-aminopiperidin-1-yl)(2-(1-(cyclopropylmethyl)-5-styryl-1H-indol-2-yl)-3,4-dihydro-5-oxa-1,2a-diazaacenaphthylen-7-yl)methanone]	< 100 nM
COc1ccc2c(c1)cc(-c1nc3cc(C(=O)N4CCC[C@@H](N)C4)cc4c3n1CCO4)n2CC1CC1 [Compound 146, (R)-(3-aminopiperidin-1-yl)(2-(1-(cyclopropylmethyl)-5-methoxy-1H-indol-2-yl)-3,4-dihydro-5-oxa-1,2a-diazaacenaphthylen-7-yl)methanone]	100 to 1000 nM
N[C@@H]1CCCN(C(=O)c2cc3c4c(c2)nc(-c2cc5ccc(CO)cc5n2CC2CC2)n4CCO3)C1 [Compound 147, (R)-(3-aminopiperidin-1-yl)(2-(1-(cyclopropylmethyl)-6-(hydroxymethyl)-1H-indol-2-yl)-3,4-dihydro-5-oxa-1,2a-diazaacenaphthylen-7-yl) methanone]	100 to 1000 nM
N[C@@H]1CCCN(C(=O)c2cc3c4c(c2)nc(-c2cc5ccccc5n2CC2CC2)n4CCN3)C1 [Compound 149, (R)-(3-aminopiperidin-1-yl)(2-(1-(cyclopropylmethyl)-1H-indol-2-yl)-5,6-dihydro-4H-imidazo[1,5,4-de]quinoxalin-8-yl)methanone]	100 to 1000 nM
N[C@@H]1CCCN(C(=O)c2cc3c4c(c2)nc(-c2cc5ccccc5n2Cc2cccnc2)n4CCN3)C1 [Compound 152, (R)-(3-aminopiperidin-1-yl)(2-(1-(pyridin-3-ylmethyl)-1H-indol-2-yl)-5,6-dihydro-4H-imidazo[1,5,4-de]quinoxalin-8-yl)methanone]	< 100 nM
N[C@@H]1CCCN(C(=O)c2cc3c4c(c2)nc(-c2cc5cc(Br)ccc5n2CC2CC2)n4CCN3)C1 [Compound 153, (R)-(3-aminopiperidin-1-yl)(2-(5-bromo-1-(cyclopropylmethyl)-1H-indol-2-yl)-5,6-dihydro-4H-imidazo[1,5,4-de]quinoxalin-8-yl)methanone]	< 100 nM
N[C@@H]1CCCN(C(=O)c2cc3c4c(c2)nc(-c2cc5ccccc5n2Cc2ccccc2F)n4CCN3)C1 [Compound 156, (R)-(3-aminopiperidin-1-yl)(2-(1-(2-fluorobenzyl)-1H-indol-2-yl)-5,6-dihydro-4H-imidazo[1,5,4-de]quinoxalin-8-yl)methanone]	< 100 nM
COc1ccc2cc(-c3nc4cc(C(=O)N5CCC[C@@H](N)C5)cc5c4n3CCN5)n(CC3CC3)c2c1 [Compound 159, (R)-(3-aminopiperidin-1-yl)(2-(1-(cyclopropylmethyl)-6-methoxy-1H-indol-2-yl)-5,6-dihydro-4H-imidazo[1,5,4-de]quinoxalin-8-yl)methanone]	100 to 1000 nM
COc1ccc2cc(-c3nc4cc(C(=O)N5CCC[C@@H](N)C5)cc5c4n3CCN5C)n(CC3CC3)c2c1 [Compound 160, (R)-(3-aminopiperidin-1-yl)(2-(1-(cyclopropylmethyl)-6-methoxy-1H-indol-2-yl)-6-methyl-5,6-dihydro-4H-imidazo[1,5,4-de]quinoxalin-8-yl)methanone]	< 100 nM
CN1CCn2c(-c3cc4cc(F)ccc4n3CC3CC3)nc3cc(C(=O)N4CCC[C@@H](N)C4)cc1c32 [Compound 161, (R)-(3-aminopiperidin-1-yl)(2-(1-(cyclopropylmethyl)-5-fluoro-1H-indol-2-yl)-6-methyl-5,6-dihydro-4H-imidazo[1,5,4-de]quinoxalin-8-yl)methanone]	< 100 nM
CC(=O)N1CCn2c(-c3cc4ccccc4n3CC3CC3)nc3cc(C(=O)N4CCC[C@@H](N)C4)cc1c32 [Compound 171, (R)-1-(8-(3-aminopiperidine-1-carbonyl)-2-(1-(cyclopropylmethyl)-1H-indol-2-yl)-4,5-dihydro-6H-imidazo[1,5,4-de]quinoxalin-6-yl)ethan-1-one]	< 100 nM
